Test results from patent US20260102407A1, “TREATMENT METHODS” (priority 2020, published 2026).

How the values were obtained:
c-Fos = assay: Western blot, serum-inducible c-Fos expression in HMEC-1; format: cell-based, human; settings: 30 μM compound, 10% FBS 1 h
Procedure: Western blot analysis with extracts of cells treated with serum. HMEC-1 (80-90% confluency) were arrested in serum-free MCDB131 medium without EGF or hydrocortisone for 20 h. Cells were treated with 30 μM compound in serum-free MCDB131 medium for 4 h, and the medium was changed to complete medium (with 10% FBS with EGF and hydrocortisone) with 30 μM compound for 1 h. Total protein was harvested as previously described in radioimmunoprecipitation (RIPA) lysis buffer with protease inhibitors (Li, Y., et al., Int J Cardiol 220, 185-191 (2016)). Proteins were resolved on 4-20% (w/v) sodium dodecyl sulfate (SDS)-polyacrylamide gradient gels (Bio-Rad Mini-PROTEAN TGX) and transferred to Immobilon-P PVDF membranes (Millipore, USA). Membranes were blocked with 5% skim milk and incubated with rabbit monoclonal FosB (cat. 2251, 1:1000, Cell Signaling, USA), rabbit monoclonal c-Fos antibodies (cat. 2250, 1:1000, Cell Signaling, USA) at 4° C. overnight or mouse monoclonal […] antibodies (cat. A5316, 1:30000, Sigma-Aldrich) at 22° C. for 15 min then incubated with a horseradish peroxidase conjugated secondary goat anti-rabbit (cat. P0448, 1:1000, DAKO Cytomation, Denmark) or goat anti-mouse (cat. P0447, 1:1000, DAKO Cytomation, Denmark) antibodies for 1 h. Chemiluminescence was detected using the Western Lightning Chemiluminescence system (PerkinElmer, USA) and ImageQuant™ LAS 4000 biomolecular imager (GE Healthcare Life Sciences, USA). Band intensity in images generated with the LAS 4000 on automatic exposure with sensitivity/resolution setting high was quantified using NIH ImageJ.

[1] = system: plasma levels of IL-1β, IL-2, IL-6, IL-4, IL-10; assay: Collagen antibody-induced arthritis, plasma cytokine levels; format: in vivo, mouse; settings: CAIA mice; 30 mg/kg
Solubility in water = format: physicochemical
ERK phosphorylation = assay: Western blot, IL-1β-inducible ERK phosphorylation in HMEC-1; format: cell-based, human
Procedure: Western blot analysis with extracts of cells treated with […]. HMEC-1 (80-90% confluency) were arrested in serum-free MCDB131 medium (Invitrogen, MD) without any growth factor for 48 h. Cells were treated with 30 μM compound in serum-free medium for 4 h, and incubated with 20 ng/ml IL-1β (Sigma, cat. SRE3083) in serum-free medium with the same concentration of compound for up to 4 h, unless otherwise indicated. Total protein was harvested as previously described using RIPA buffer with protease inhibitors. Proteins were resolved on 4-20% (w/v) SDS-polyacrylamide gradient gels and transferred to Immobilon-P PVDF membranes. Membranes were blocked with 5% skim milk and incubated with rabbit monoclonal FosB (cat. 2251S, 1:1000, Cell Signaling, USA), rabbit monoclonal VCAM-1 (cat. 13662S, 1:1000, Cell Signaling, USA), rabbit monoclonal p44/42 MAPK (cat. 4695S, 1:1000, Cell Signaling, USA), rabbit polyclonal p38 MAPK (cat. 9212S, 1:1000, Cell Signaling, USA), rabbit polyclonal SAPK/JNK (cat. 9252S, 1:1000, Cell Signaling, USA), rabbit monoclonal phospho-SAPK/JNK (cat. 4671S, 1:1000, Cell Signaling, USA), rabbit monoclonal phospho-p38 MAPK (cat. 4511S, 1:1000, Cell Signaling, USA), or, mouse monoclonal phospho-p44/42 MAPK antibodies (cat. 9106S, 1:2000, Cell Signaling, USA) at 4° C. overnight or mouse monoclonal β-actin antibodies (cat. A5316, 1:10000, Sigma-Aldrich) antibodies at 22° C. for 1 h. Membranes were then incubated with horseradish peroxidase conjugated secondary goat anti-rabbit (cat. P0448, 1:1000, DAKO Cytomation, Denmark) or goat anti-mouse (cat. P0447, 1:1000, DAKO Cytomation, Denmark) antibodies for 1 h. Chemiluminescence was detected using the Western Lightning Chemiluminescence system and ImageQuant™ LAS 4000 biomolecular imager. Band intensity in images generated with the LAS 4000 using the same settings were quantified by NIH ImageJ.

VCAM-1 = assay: Flow cytometry of VCAM-1 on IL-1β-treated HMEC-1; format: cell-based, human; settings: 30 μM, 20 ng/ml IL-1β 4 h
Procedure: Flow cytometry. HMEC-1 (at 80-90% confluency) were arrested in serum-free MCDB131 medium without EGF or hydrocortisone for 40 h, treated with 30 μM BT2 or BT3 for 4 h. The cells were incubated in serum-free medium and exposed to 20 ng/ml IL-1β with the same concentration of BT2 or BT3 for a further 4 h. The cells were washed with PBS then detached with Accutase (Stem Cell Technologies, cat. 07920). The cells were centrifuged at 300 g for 5 min and resuspended at 5×10^6 cells/ml containing BT2 or BT3. The cells were incubated with BV421-conjugated mouse anti-human CD106 (VCAM-1) (BD, cat. 744309) or BV421-conjugated mouse IgG1 (BD, cat. 562438) for 45 min at 22° C. The cells were washed with Stain Buffer and the pellet was resuspended in 0.5 ml of 1% paraformaldehyde prior to flow cytometry BD FACSCanto II.
VCAM-1^+ and VCAM-1^− cells were gated by performing flow cytometry with or without primary VCAM-1 antibody (non-specific staining), respectively. […] The gating strategy is based on fluorescence excitation off both the 488 nm laser and 405 nm laser with emission filters 670LP off 488 nm and 450/50 off 405 nm. Cells with autofluorescence or negative (blue population) had equal proportion of fluorescence in both channels and VCAM-1 positive cells (red) emit light in the 450/50 filter.

THP-1 adhesion to HMEC = assay: Endothelial-monocytic cell adhesion assay; format: cell-based, human; settings: 20 ng/ml IL-1β, calcein-labeled THP-1
Procedure: Endothelial-monocytic cell adhesion assay. HMEC (80-90% confluency) in 96-well plates were deprived of serum for 24 h and treated with compound at indicated concentrations for 1 h then incubated with IL-1β (20 ng/ml) for 4 h. Meanwhile THP-1 were labeled with 5 μM calcein (5×10^6 cells/ml, BD Bioscience) for 30 min at 37° C. followed by washing 3 times with PBS. THP-1 (2.5×10^5 cells/well) were then added for 30 min, unbound cells were washed off 3 times in PBS. Adhesion of calcein-labeled THP-1 to the endothelium layer was determined in a fluorescent plate reader at excitation 485 nm and emission 530 nm.

Structure (SMILES): CCOC(=O)Nc1ccc2c(c1)C(=O)N(CC)c1ccccc1O2 [BT2, (10-ethyl-11-oxo-10,11-dihydro-dibenzo[b,f][1,4]oxazepin-2-yl)-carbamic acid ethyl ester]
- serum-inducible c-Fos expression (Western blot) (c-Fos): blocked the inducible expression of c-Fos
- plasma level of IL-1β [1]: reduced plasma levels of IL-1β, IL-2 and IL-6 to normal levels
- plasma level of IL-2 [1]: reduced plasma levels of IL-1β, IL-2 and IL-6 to normal levels
- plasma level of IL-4 [1]: did not change
- plasma level of IL-6 [1]: reduced plasma levels of IL-1β, IL-2 and IL-6 to normal levels
- plasma level of IL-10 [1]: did not change
- solubility in water (Solubility in water): poorly soluble in water
- IL-1β-inducible ERK phosphorylation (Western blot) (ERK phosphorylation; 30 μM, 20 ng/ml IL-1β up to 4 h): inhibited
- inhibition of IL-1β-inducible ERK phosphorylation, potency relative to PD98059 (ERK phosphorylation; dose escalation 1-30 μM): more potently than PD98059
- VCAM-1 expression by flow cytometry (VCAM-1): inhibition of VCAM-1
- THP-1 adhesion to IL-1β-treated endothelial cells (THP-1 adhesion to HMEC): inhibited by BT2
